Four compounds from the NIST ThermoML archive (doi:10.1021/acs.jced.8b00222) can be followed below.

± gives the expanded uncertainty stated by the source.

As usually defined, the refractive index is a measure of how strongly the sample bends light. Broadly, the mass density is mass per unit of volume.

Series [1] in a line: refractive index (Na D-line) (dimensionless). The settings on record: 293.15 K; 101.33 kPa; Liquid; Standard Abbe refractometry.
The conditions of series [2]: 293.15 K; 101.33 kPa; Liquid; Pycnometric method.

Turning to `O=Cc1ccco1` [2-furaldehyde], in series [1], the refractive index came to 1.5259 ± 0.0008. In series [2], the mass density worked out at 1159.16 ± 2.2 kg/m3.

Turning to `CC(=O)O` [acetic acid], the refractive index in series [1] was 1.3717 ± 0.0008. Moreover, the mass density in series [2] is given as 1048.93 ± 2.2 kg/m3.

Consider `O` [water], for which, in series [1], the refractive index was found to be 1.3334 ± 0.0005.

Regarding `COC1CCCC1` [methoxycyclopentane], in series [1], the refractive index came to 1.4187 ± 0.0008. Further, the mass density in series [2] stood at 860.13 ± 2.1 kg/m3.
